Experimental data published in patent US20050175688A1 (priority 2004, published 2005).

Columns and labels:
[1] = system: chronic pelvic pain/endometriosis; experiment: Potaba protocol study: oral Potaba in women with chronic pelvic pain/endometriosis; format: in vivo
Description: The total number of women under clinical examination was 212.
All of those who volunteered for the therapy protocol met the criteria of 10 points or more on the self-test, that threshold defining a subject who was at risk for endometriosis.
A pelvic pain assessment which was originated by the International Pelvic Pain Society© 1999 (IPPS) was also conducted. IPPS evaluated the volunteer subjects for the following information: pain, menses, bladder, bowel habits, gastro-intestinal/eating habits, health habits, coping mechanisms, a short form McGill questionnaire (psychological; level of depression assay), daily activities, personal history, surgical history, sexual history and physical history.
In addition to a careful review of the pre-test examinations of the prospective subjects, exclusion criteria were also established as a means of reducing unrelated influences into the test results.
Only one physician conducted the physical evaluation of each of the participants to ensure consistency throughout the study. In addition to repeated laboratory and thorough physical examinations, the examining physician personally discussed and recorded responses to questions about the presence or absence of side-effects and improvements in symptoms, if any. […] Although the subjects individual responses to questions regarding symptoms and particularly levels of pain experience throughout the test period inherently can include a subjective element, the questions were repetitiously and precisely posed to the subjects so as to prompt a consistent response minimally effected by the questioner's choice of words, tone, delivery, etc. The test subjects reported pelvic pain experience as a number selected between the levels of 1 to 10, with 1 being no pain experienced and 10 being the most severe level of pain.

[2] = Solubility in water; format: physicochemical
[3] = 12 grams/day po, out of 25 participants

Nc1ccc(C(=O)O)cc1 [Potaba, aminobenzoate potassium]
Discontinued Potaba protocol (reason): nausea, No. of Study Participants [1, 3]: 3 | Discontinued Potaba protocol (reason): rash, No. of Study Participants [1, 3]: 2 | incidence of drug interactions ([1]; oral administration): low incidence of drug interactions | toxicity / safety of oral administration (result in words) ([1]; oral administration, potassium): non-toxic and safe | solubility in water [2]: highly soluble in water
